# Results from patent US12060388B2, “Cell-penetrating peptides and methods of use thereof” (priority 2018, dated 2024).
# No end group written: not given here. *: point of attachment. Biotin = O=C1N[C@H]2[C@H](CS[C@H]2CCCCC(=O)*)N1
# Columns and labels:
# [1] = test system: HaCaT cells; assay: Modulation of CPP action by flanking sequences, GFP fusion proteins on HaCaT cells; format: cell-based, human
# Description: Fusion proteins with various segments of the C-terminus of HPV16 or HPV5 L2 were added to HaCaT cells. The sequences used are as follows:
# In some cases, various concentrations of fusion proteins were added to assess efficacy. In other cases, the pH of the culture medium was physiological pH 7 or adjusted to acidic pH 4 prior to peptide addition, or the cells were incubated with peptide at physiological temperature of 37° C. or at 30° C. Activity was assessed by confocal microscopy for intracellular fluorescence. In some experiments, cell surface fluorescence was extinguished by treatment with the membrane-impermeable fluorescence quencher, trypan blue.
# [2] = test system: wild-type HPV16 pseudovirus; assay: Peptide inhibition experiment with L2-C, HeLa cells; format: cell-based; conditions: 4 μg peptide, infectivity 48 hours later
# Description: HeLa cells were treated at 37° C. with 4 μg L2-C, a peptide containing the HPV16 L2 retromer binding site and CPP or mock treated. B represents N terminal biotinylation and Am represents C-terminal amidation. Two hours later, the cells were infected for two hours at 37° C. with wild-type HPV16 pseudovirus. Cells were washed and medium was replenished with medium containing the peptide for 24 hours. Infectivity was tested 48 hours later by using flow cytometry to measure fluorescence of HcRed expressed from a plasmid encapsidated in the pseudovirus particle. Similar results were obtained in two independent experiments.
# HeLa cells were left untreated or treated at 37° C. with 4 μg L2-C, a peptide containing the HPV16 L2 retromer binding site and CPP. The sequence of L2-C is as follows: B-[…]-Am, (SEQ ID NO: 533), where B represents N-terminal biotinylation and Am represents C-terminal amidation. Two hours later, the cells were infected for two hours at 37° C. with wild-type HPV16 pseudovirus. Cells were washed and medium was replenished with medium containing the peptide for 24 hours. Infectivity was tested 48 hours later by using flow cytometry to measure fluorescence of HcRed expressed from a reporter plasmid encapsidated in the pseudovirus particle, and normalized to infectivity of cells infected in the absence of peptide. Similar results were obtained in two independent experiments.
# [3] = test system: HPV16 PsV; assay: HPV16 PsV infectivity in HeLa S3 cells with chemical inhibitors; format: cell-based; conditions: MOI of one, 48 h.p.i.
# Description: 5×10^4 HeLa S3 or HaCaT cells in 12-well plates were incubated with PsVs at MOI of approximately one. The number of packaged reporter plasmids required to achieve this MOI as assessed by flow cytometry for reporter gene expression from wild-type PsV was quantified by qPCR, and an equivalent number of genomes in mutant PsV were used to infect cells. Approximately five-fold more virus was used to attain this MOI in HaCaT cells. Cells were analyzed by flow cytometry on a Stratedigm-12 flow cytometer to determine the fraction of cells displaying HcRed fluorescence 48 h.p.i. To measure dependence on retromer, 1×10^5 HeLa S3 cells in a 12-well plate were transfected […] to infection with 10 pmol siRNAs targeting Vps29 (Dharmacon, Lafayette, CO; #D-009764-03) or Vps35 (Dharmacon, #D-010894-01) by using RNAiMAX (Thermo Fisher, Waltham, MA, #13778100) according to manufacturer's protocol. Cells transfected with a 10 pmol RISC-free siRNA were used as a control. Forty-eight h.p.i., infectivity was measured by flow cytometry for reporter gene expression. […] Forty-eight h.p.i., infectivity was measured by flow cytometry for HcRed expression. […] Forty-eight h.p.i., infectivity was measured by flow cytometry for HcRed expression.
# [4] = biological target: T1, retromer (Vps35) (Homo sapiens, UniProt O75436+Q96QK1); assay: Biotinylated peptide pull-down from HeLa S3 lysate, blot for Vps35; format: binding; conditions: streptavidin pull-down
# T1 construct: endogenous in cells; host or cells: HeLa S3 lysate (RIPA-MOPS buffer)
# Description: For peptide pull-down experiments, N-terminal biotinylated L2 peptides (sequences shown in FIG. 2A) were purchased from ABClonal Science (Woburn, MA) at >95% purity. L2 wild-type was dissolved initially in 30% acetic acid and DMSO (˜70 μl each), and then dissolved in sterile deionized water with 0.01% sodium azide. L2-6A, L2-3R and L2-DM were initially solubilized in a small amount of DMSO (˜70-80 μl) and then dissolved in sterile deionized water with 0.01% sodium azide. Peptide stocks (5 mg/ml) were aliquoted and stored at −20° C. HeLa S3 cells plated in six-well plates were lysed at ˜80% confluency with 500 μl RIPA-MOPS buffer (20 mM morpholinepropanesulfonic acid [pH 7.0], 150 mM NaCl, 1% Nonidet P-40, 1 mM EDTA, 1% deoxycholic acid, 0.1% sodium dodecyl sulfate [SDS]) supplemented with protease inhibitors (1×HALT protease and phosphatase inhibitor cocktail (Thermo Scientific, Waltham, MA; #78443)). The lysate was centrifuged at 14,000 rpm for 20 min, and the supernatant was incubated with 10 μg of a biotinylated peptide for two h at 4° C. Fifty μl of streptavidin agarose beads slurry (Pierce, Rockford, IL; #20349) was added, and the mixture was gently rocked for 45 min at 4° C. […] Samples were analyzed by SDS-PAGE and immunoblotting with antibody recognizing Vps35 (Abcam, Cambridge, MA; ab57632).
# [5] = test system: HPV16 PsV containing GFP11-tagged L2; assay: Split GFP assay with aphidicolin, HaCaT/GFP1-10NES cells; format: cell-based; conditions: 6 μM, MOI of 2000, three h.p.i.
# Description: FIG. 12A depicts HeLa S3 cells left untreated or treated with 6 μM aphidicolin. Twenty-four h later, cells were infected at MOI of one with wild-type HPV16 PsV or PsV containing L2-GFP11-CPP or L2-CPP-GFP11. Forty-eight h.p.i., the fraction of infected cells was determined by flow cytometry for HcRed fluorescence and normalized to untreated cells infected with wild-type HPV16 PsV. FIG. 12B depicts HaCaT/GFP1-10NES cells infected at an MOI of 2000 with wild-type HPV16 PsV or PsV containing GFP11-tagged L2 in the presence of absence of 6 μM aphidicolin. Three h.p.i., cells were examined by confocal microscopy for reconstituted GFP fluorescence. Fluorescence in individual cells (˜250 for each condition) is plotted from two independent experiments. […]
# Generation of stable cell lines. […] Single cells were then plated in a 96-well plate, and monoclonal cell lines were isolated and tested by infection of HPV16-CPP-GFP11 PsV at ˜2000 MOI and monitoring fluorescence. […] Images were acquired with a Leica SP5 inverted fluorescence microscope to identify cell lines expressing cytoplasmic GFP1-10NES. […] Twenty-four hours later, live cells were examined by fluorescence microscopy. […] Twenty-four h later, live cells were examined by fluorescence microscopy. As expected, fluorescence with GFP11-CD8-CIMPR was reconstituted only when the GFP1-10 segment was luminal (FIG. 8F). […]
compound,measurement,setting,value
His6-GFP-linker-RKRRKR,cell binding and entry at pH 7,[1]; three hours at 37° C.,"active in cell binding and internalization, but is not as efficient"
His6-GFP-linker-IPVVIIHPHDSTGDFYLHPSLHRRKRKRKYL [GFP fusion protein with HPV5 C-terminus],"cell binding, temperature dependence","[1]; three hours, 30° C. or 37° C.",better at 30 °C than at 37 °C
His6-GFP-linker-PQYTIIADAGDFYLHPSYYMLRKRRKR [GFP-21P-CPP],cell binding and entry at pH 7,[1]; three hours at 37° C.,binds
B-SPQYTIIADAGDFYLHPSYYMLRKRRKR-Am [L2-C],inhibition of infection by HPV16 PsV,[2],dramatic inhibition of infection
C[C@H](NC(=O)Cc1cc(F)cc(F)c1)C(=O)N[C@H]1N=C(c2ccccc2)c2ccccc2N(C)C1=O [XXI],inhibition of wild-type and L2-Tat PsV infection,"[3]; 250 nM, pretreated one h",near-complete inhibition
L2-3R: N-terminal biotinylated C-terminal L2 peptide with the 3R mutation (Biotin-SPQYTIIADAGDFYLHPSYYMLRRR),retromer binding of L2 peptide in vitro,[4],did not affect retromer binding
"C[C@@]1(CO)[C@H](O)CC[C@@]2(C)[C@H]1CC[C@H]1C[C@@H]3C[C@@]12CC[C@]3(O)CO [aphidocolin, aphidicolin]",reconstituted GFP signal,[5],did not decrease the reconstituted GFP signal
same,effect on HPV infection,"[3]; 6 μM, pretreated 24 h",inhibited infection
His6-GFP-linker-PQYTIIADAGDFYLHPSYYMLRKRRKRLPYFFSDVSLAA [GFP-HPV16 L2],cell binding and entry at pH 4,"[1]; three hours at 37° C., pH 4",well
same,cell binding and entry at pH 7,[1]; three hours at 37° C.,poorly
